Data from PubChem BioAssay (NCI).
Several values for one entry are separate records, joined by “and”; a condition that tells them apart may be missing. Equal entries are not always repeated.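 Exposure lasted 48 hours, with cells grown in 96-well plates and compounds tested at five concentrations. The concentration for 50% growth inhibition is given as GI50. TGI: total growth inhibition.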

Tests used:
Experiment in all cases: inhibition of tumour cell growth, NCI panel, 48 h
TK-10 renal = test system: TK-10 renal
RXF 393 renal = test system: RXF 393 renal
A498 renal = test system: A498 renal
UACC-257 melanoma = test system: UACC-257 melanoma
PC-3 prostate = test system: PC-3 prostate
NCI-H522 lung = test system: NCI-H522 lung
MALME-3M melanoma = test system: MALME-3M melanoma
DU-145 prostate = test system: DU-145 prostate
HCT-15 colon = test system: HCT-15 colon
UACC-62 melanoma = test system: UACC-62 melanoma

SMILES | GI50 (TK-10 renal) [µM] | TGI (TK-10 renal) [µM] | GI50 (RXF 393 renal) [µM] | TGI (RXF 393 renal) [µM] | GI50 (A498 renal) [µM] | TGI (A498 renal) [µM] | GI50 (UACC-257 melanoma) [µM] | TGI (UACC-257 melanoma) [µM] | GI50 (PC-3 prostate) [µM] | TGI (PC-3 prostate) [µM] | GI50 (NCI-H522 lung) [µM] | TGI (NCI-H522 lung) [µM] | GI50 (MALME-3M melanoma) [µM] | TGI (MALME-3M melanoma) [µM] | GI50 (DU-145 prostate) [µM] | TGI (DU-145 prostate) [µM] | GI50 (HCT-15 colon) [µM] | TGI (HCT-15 colon) [µM] | GI50 (UACC-62 melanoma) [µM] | TGI (UACC-62 melanoma)
Cc1[nH]c(N=Nc2ccccc2)nc1N=Nc1ccccc1 | 1.85 | > 32.9 | 0.552 | 3.43 | 5.1 | 25.6 | 2.26 | 5.89 | 4.99 | > 51.6 | 2.69 | > 34.5 | 2.27 | 8.06 | 3.17 | > 34.9 | 1.4 | 22.1 | 1.83 | 4.34 µM
Cn1cc(C2=C(c3cn(CCCN=C(N)N)c4ccccc34)C(=O)NC2=O)c2ccccc21 | > 25 | > 25 | > 20 | > 25 | > 25 | > 25 | > 25 | > 25 | > 23.1 | > 25 | > 22.2 | > 25 | > 25 | > 25 | > 25 | > 25 | > 25 | > 25 | > 25 | > 25 µM
CCC1(O)C(=O)OCc2c1cc1n(c2=O)Cc2cc3c(N)cccc3nc2-1 (stereo unspecified) | – | 35.8 | – | 0.348 | – | 1.39 | – | 2.62 | – | > 100 | 0.0231 | 0.763 | – | 5.67 | – | 0.25 | – | 25.2 | – | 0.0345 µM
CCCCCCCCCCC(O)C1CCC(C2CCC(C(O)CCCCC(O)CCCCCC(O)CC3=CC(C)OC3=O)O2)O1 (stereo unspecified) | 1.98 | > 25 | – | > 25 | 5.27 | > 25 | 0.452 | > 25 | 2.79 | > 25 | – | > 25 | – | > 25 | > 25 | > 25 | 4.64 | > 25 | > 25 | 9.08 µM and > 25 µM
COc1cccc(N=Cc2c3ccccc3c(=O)n3c2oc2ccccc23)c1 | 2.95 | 7.69 | – | 20.9 | 17.2 | 61.4 | – | – | 3.81 | 39.6 | 24 | > 100 | – | – | 21.8 | > 100 | 14.4 | > 100 | 2.58 | 12.9 µM
COc1ccc(C(=O)/C=C/c2cccnc2Nc2cc(OC)c(OC)c(OC)c2)cc1 | 1.83 | 5.53 | 1.47 | 5.36 | 1.8 | 13.1 | 3.93 | 15 | 1.53 | 10.1 | 0.93 | 2.65 | 6.32 | 20.1 | 4.89 | 17.1 | 0.884 | 3.86 | 1.71 | 4.38 µM
CN(C)C(=S)SN(C)C(=O)Nc1ccccc1 | – | > 100 | – | 6.31 | – | > 33.8 | – | > 63.1 | – | > 100 | – | 3.5 | – | 50.3 | – | > 100 | – | > 85.3 | – | 19.1 µM
O=C(O)c1cc(N=Nc2ccc([As](=O)(O)O)cc2)ccc1O | – | > 100 | – | > 100 | – | > 100 | – | > 100 | – | > 100 | – | > 100 | – | > 100 | – | > 100 | – | > 100 | – | > 100 µM
CC12CCCC(CC(=O)c3[nH]c4ccccc4c31)C2 (stereo unspecified) | 14.6 | > 90.4 | 0.629 | 4.88 | 0.483 | 4 | 15.2 | > 100 | 0.698 | > 100 | 0.451 | 5.29 | 0.916 | 35.6 | 2.04 | 24.3 | 0.413 | 24.4 | 0.491 | > 60.3 µM
C[C@]12CC[C@@H]3c4ccc(O)cc4CC[C@H]3[C@@H]1CC[C@@H]2NS(=O)(=O)c1ccc(C(F)(F)F)cc1 | 3.28 | 8.53 | 1.63 | 3.13 | 1.25 | 2.74 | 2.59 | 7.57 | 1.99 | 5.24 | 1.69 | 3.85 | 2.03 | 4.37 | 2.75 | 7.11 | 1.68 | 3.62 | 1.83 | 3.55 µM
C[C@]12CC[C@@H]3c4ccc(Oc5nc(N6CC6)nc(N6CC6)n5)cc4CC[C@H]3[C@@H]1CCC2=O | – | – | – | – | 1.88 | 5.79 | 2.89 | 17.5 | 3.46 | 21.8 | 1.91 | 4.57 | – | – | 1.82 | 6.46 | 2.85 | 18.6 | – | –
NC(N)=NC(N)=Nc1cc2ccccc2c2ccccc12 | 6.08 | 20.5 | 10.6 | 24.1 | 1.39 | 10.1 | 10.5 | 22.9 | 7.51 | 24.9 | 5.66 | 21.5 | 7.16 | 22.1 | 11.9 | 25 | 14.9 | 30.5 | 12.1 | 25.8 µM
COc1cccc(NCc2nnc(Nc3ccc(Cl)cc3)c3ccccc23)c1 | – | – | 2.16 | 6.11 | 1.27 | 4.42 | 2.04 | 5.28 | 1.19 | 9.33 | 0.302 | 3.31 | 1.22 | 6.23 | 2.4 | 6.52 | 1.78 | 7.56 | 1 | 5.76 µM
COc1ccc(C2CC(=O)c3c(O)c(OC)c(OC)c(OC)c3O2)c(O)c1 (stereo unspecified) | 4.96 | 49 | 0.243 | 25.5 | 0.126 | 0.984 | – | – | 0.0707 | 20.8 | 0.0326 | 0.188 | 13.1 | 26.7 | 0.25 | 15.9 | 0.0498 | 17.8 | 0.0566 | 20.2 µM
